Experimental data from EP4635513A1, “NEAR-INFRARED PHOTOSENSITIZER THAT CAN BE ACTIVATED IN SLIGHTLY ACIDIC TUMOR ENVIRONMENT AND PREPARATION METHOD THEREFOR AND USE THEREOF” (Shenzhen University, priority 2024, dated 2025).

Assays:
[1] = pH-response fluorescence spectra; format: physicochemical; conditions: pH dependence; for fluorescence intensity in the visible light region: excitation 420 nm, PBS buffer with 1% DMSO; for fluorescence emission intensity in the near-infrared region: excitation 760 nm (LET-H, LET-I), 660 nm (LET-Hcy-N)
Procedure: The photosensitizers prepared in the Embodiments 1-8 were individually dissolved in dimethyl sulfoxide to prepare 10 mM photosensitizer stock solution, which were stored at 4 °C for subsequent use. All experiments were conducted in PBS buffer (1 ×) containing 1% DMSO. 2 µL of the photosensitizer stock solution was added to 2 mL of PBS buffer solutions at different pH values. Absorption spectra and fluorescence spectra of each photosensitizer under various pH conditions were recorded using ultraviolet-visible spectrophotometry and fluorescence spectrophotometry.

[2] = Singlet oxygen detection by ESR/EPR spectroscopy with TEMP as trapping agent; format: physicochemical; conditions: near-infrared irradiation
Procedure: Singlet oxygen generation and characterization were further analyzed by electron spin resonance (ESR) spectroscopy. Using photosensitizers LET-H' and LET-I' as examples, 2,2,6,6-tetramethyl-4-piperidone hydrochloride (TEMP) was employed as the singlet oxygen trapping agent. Two groups of photosensitizer stock solutions were prepared and diluted with TEMP added, one group remained untreated, while another was irradiated with the near-infrared laser, and a blank control group was also prepared for comparison.

[3] = Singlet oxygen quantum yield with ICG as reference standard; format: physicochemical; conditions: DPBF in dichloromethane, near-infrared laser
Procedure: Using indocyanine green (ICG) as a reference standard, the singlet oxygen quantum yields of photosensitizers LET-R (R = H, Cl, Br, I) were determined. At first, an appropriate volume of freshly prepared DPBF solution was added to dichloromethane to adjust the absorbance at 415 nm to approximately 1.0, followed by addition of test solution (photosensitizer or ICG) at optimized concentration. Samples were then irradiated with a near-infrared laser, and time-dependent ultraviolet-visible spectral changes were recorded. The singlet oxygen quantum yield was calculated using Formula (1): ΦΔ = […] [formula]
ΦΔ represents the singlet oxygen quantum yield of test molecules, and ΦICG represents the singlet oxygen quantum yield of ICG. "ps" represents the photosensitizer under investigation, while k represents a slope of DPBF absorbance decay at 415 nm over time. And correction factor F is calculated using Formula (2): […] [formula]
In Formula (2), OD represents the absorbance of solutions at a laser wavelength.

[4] = Singlet oxygen generation assay with DPBF as trapping agent; format: physicochemical; conditions: 808 nm laser irradiation, 0.2 W cm^-2; DMSO
Procedure: The photosensitizers LET-R (R = H, Cl, Br, I) prepared in the Embodiments 1-4 were assessed. 1,3-Diphenylisobenzofuran (DPBF) was selected as a singlet oxygen trapping agent to determine a singlet oxygen generation capability of each photosensitizer molecule.
A 1 mM DPBF stock solution was first prepared for use. An appropriate volume of freshly prepared DPBF solution was then added to DMSO to adjust the absorbance at 415 nm to approximately 1.0, followed by addition of photosensitizer solution at appropriate concentration. The ultraviolet-visible absorption spectra were measured after different irradiation times with a near-infrared laser. The singlet oxygen generation capability of each photosensitizer was evaluated by monitoring the absorbance changes of DPBF at 415 nm.

[5] = system: murine mammary carcinoma cells (4T1 cell line); test: Photodynamic efficacy at cellular level, cell viability assay; format: cell-based; conditions: Mus musculus, light or radiation study, 4T1 cells, 6 hours incubation, 808 nm (0.2 W/cm^2) laser, 20 minutes irradiation
Procedure: The photodynamic therapeutic efficacy was evaluated using standardized […] assay protocols to assess the effects of photosensitizer molecules on viability of murine mammary carcinoma cells (4T1 cell line).
Cell culture was performed using Dulbecco's Modified Eagle Medium (DMEM) high glucose supplemented with 10% fetal bovine serum (FBS) and 1% antibiotic-antimycotic solution (penicillin-streptomycin mixture), and maintained in a humidified incubator at 37 °C with 5% CO2. Experimental procedures were initiated when cell density reached 80% confluency. Using photosensitizers LET-H and LET-I as examples, 4T1 cells were seeded in 96-well plates (100 µL, 5×10^3 cells/well) and cultured for 24 hours, then original medium was discarded and replaced with medium containing photosensitizer molecules at a concentration of 20 µM. After 6 hours of incubation, the medium in each well was replaced with fresh medium, and irradiated with an 808 nm (0.2 W/cm^2) laser for different times (0, 5, 10 and 20 min), and placed back in cell culture incubator for continued incubation. After irradiation, the plates were returned to the incubator for continued culture. After 12 hours of incubation, 10 µL of CCK-8 solution was added to each well, and the plates were incubated for one additional hour. Absorbance was subsequently measured at 450 nm using a microplate reader.

## CC1(C)C(=CC=C2CCCC(C=CC34OCCCN3c3ccccc3C4(C)C)=C2Cl)N(CCCO)c2ccccc21 (stereo not shown) [LET-H]
[1]
  fluorescence intensity in the visible light region: decreased with increasing pH
  fluorescence emission intensity in the near-infrared region: enhanced fluorescence emission intensity at higher pH values
[2]
  EPR spectrum, singlet oxygen production: three isointense paramagnetic resonance peaks (1:1:1)

## CCN(CC)c1ccc2c(c1)OC1=C(C=CC34OCCCN3c3ccccc3C4(C)C)CCCC1=C2 (stereo not shown) [LET-Hcy-N]
[1]
  fluorescence emission intensity in the near-infrared region: enhanced fluorescence emission intensity at higher pH values

## CC1(C)C(=CC=C2CCCC(C=CC34OCCCN3c3ccc(I)cc3C4(C)C)=C2Cl)N(CCCO)c2ccc(I)cc21 (stereo not shown) [LET-I]
[3]
  singlet oxygen quantum yield: superior singlet oxygen generation capability
[1]
  fluorescence intensity in the visible light region: decreased with increasing pH
  fluorescence emission intensity in the near-infrared region: enhanced fluorescence emission intensity at higher pH values
[2]
  EPR spectrum, singlet oxygen production: three isointense paramagnetic resonance peaks (1:1:1)
[4]
  singlet oxygen generation capability (DPBF degradation, absorbance at 415 nm): superior singlet oxygen generation efficiency
[5]
  viability at 20 µM: < 30%
